Values after ≈ are worked out from the molar mass of the structure shown.
Columns and labels:
Format in all cases: functional
[1] = tested on: Escherichia coli; assay: Antibacterial activity against Escherichia coli assessed as bacterial growth inhibition by serial dilution method
[2] = tested on: Pseudomonas aeruginosa; assay: Antibacterial activity against Pseudomonas aeruginosa assessed as bacterial growth inhibition by serial dilution method
[3] = tested on: Bacillus subtilis; assay: Antibacterial activity against Bacillus subtilis assessed as bacterial growth inhibition by serial dilution method
[4] = tested on: Staphylococcus aureus; assay: Antibacterial activity against Staphylococcus aureus assessed as bacterial growth inhibition by serial dilution method
[5] = tested on: Staphylococcus epidermidis; assay: Antibacterial activity against Staphylococcus epidermidis assessed as bacterial growth inhibition by serial dilution method
[6] = tested on: Escherichia coli; assay: Antibacterial activity against Escherichia coli assessed as bacterial growth inhibition
[7] = tested on: Pseudomonas aeruginosa; assay: Antibacterial activity against Pseudomonas aeruginosa assessed as bacterial growth inhibition
[8] = tested on: Staphylococcus aureus; assay: Antibacterial activity against Staphylococcus aureus ATCC 25923 assessed as bacterial growth inhibition incubated for 18 to 20 hrs by broth microdilution method; conditions: time 18-20 hrs
[9] = tested on: Escherichia coli; assay: Antibacterial activity against Escherichia coli ATCC 25922 assessed as bacterial growth inhibition incubated for 18 to 20 hrs by broth microdilution method; conditions: time 18-20 hrs
[10] = tested on: Klebsiella pneumoniae; assay: Antibacterial activity against Klebsiella pneumoniae ATCC 29665 assessed as bacterial growth inhibition incubated for 18 to 20 hrs by broth microdilution method; conditions: time 18-20 hrs
[11] = tested on: Acinetobacter baumannii; assay: Antibacterial activity against Acinetobacter baumannii ATCC 19606 assessed as bacterial growth inhibition incubated for 18 to 20 hrs by broth microdilution method; conditions: time 18-20 hrs
[12] = tested on: Pseudomonas aeruginosa; assay: Antibacterial activity against Pseudomonas aeruginosa ATCC 27853 assessed as bacterial growth inhibition incubated for 18 to 20 hrs by broth microdilution method; conditions: time 18-20 hrs
[13] = tested on: Staphylococcus aureus; assay: Antibacterial activity against methicillin-resistant Staphylococcus aureus clinical isolate 1 assessed as bacterial growth inhibition incubated for 8 hrs by CLSI based broth microdilution method
[14] = tested on: Staphylococcus aureus; assay: Antibacterial activity against methicillin-resistant Staphylococcus aureus clinical isolate 2 assessed as bacterial growth inhibition incubated for 8 hrs by CLSI based broth microdilution method

SMILES: NC(=O)N/N=C/c1ccccc1OCc1cn(-c2ccc(Br)cc2)nn1
- MIC [1]: 25 µg/mL (≈ 60.2 µM)
- MIC [2]: 25 µg/mL (≈ 60.2 µM)
- MIC [3]: 25 µg/mL (≈ 60.2 µM)
- MIC [4]: 25 µg/mL (≈ 60.2 µM)
- MIC [5]: 25 µg/mL (≈ 60.2 µM)

SMILES: O=C(/C=C/c1ccc(OCc2cn(Cc3ccc(Br)cc3)nn2)cc1)c1ccc([N+](=O)[O-])cc1
- MIC [6]: 6.25 µg/mL (≈ 12 µM)
- MIC [7]: 6.25 µg/mL (≈ 12 µM)

SMILES: O=C(/C=C/c1ccc(OCc2cn(Cc3cccc(Br)c3)nn2)cc1)c1ccc([N+](=O)[O-])cc1
- MIC [6]: 6.25 µg/mL (≈ 12 µM)
- MIC [7]: 6.25 µg/mL (≈ 12 µM)

SMILES: NC(=S)N/N=C/c1cccc(OCc2cn(Cc3ccc(Br)cc3)nn2)c1
- MIC [1]: 6.25 µg/mL (≈ 14 µM)
- MIC [2]: 6.25 µg/mL (≈ 14 µM)
- MIC [3]: 6.25 µg/mL (≈ 14 µM)
- MIC [4]: 6.25 µg/mL (≈ 14 µM)
- MIC [5]: 6.25 µg/mL (≈ 14 µM)

SMILES: O=C(Cn1cc(CN2CCN(c3cc4c(cc3F)c(=O)c(C(=O)O)cn4C3CC3)CC2)nn1)N[C@@H](Cc1ccccn1)C(=O)O
- MIC [8]: 0.25 µg/mL (≈ 0.404 µM)
- MIC [9]: 0.25 µg/mL (≈ 0.404 µM)
- MIC [10]: 0.25 µg/mL (≈ 0.404 µM)
- MIC [11]: 0.25 µg/mL (≈ 0.404 µM)
- MIC [12]: 0.25 µg/mL (≈ 0.404 µM)

SMILES: CC(C)C[C@H](C(=O)N[C@@H]1Cc2ccc(c(Cl)c2)Oc2cc3cc(c2O[C@@H]2O[C@H](CO)[C@@H](O)[C@H](O)[C@H]2O[C@H]2C[C@](C)(NCCCCCCCc4ccccc4)[C@H](O)[C@H](C)O2)Oc2ccc(cc2Cl)[C@@H](O)[C@@H]2NC(=O)[C@H](NC(=O)[C@@H]3NC(=O)[C@H](CC(=O)O)NC1=O)c1ccc(O)c(c1)-c1c(O)cc(O)cc1[C@H](C(=O)O)NC2=O)n1cc(COc2ccc(-c3ccc(OCc4cn([C@@H](CC(C)C)C(=O)N[C@H]5Cc6ccc(c(Cl)c6)Oc6cc7cc(c6O[C@H]6O[C@@H](CO)[C@H](O)[C@@H](O)[C@@H]6O[C@@H]6C[C@@](C)(NCCCCCCCc8ccccc8)[C@@H](O)[C@@H](C)O6)Oc6ccc(cc6Cl)[C@H](O)[C@H]6NC(=O)[C@@H](NC(=O)[C@H]7NC(=O)[C@@H](CC(=O)O)NC5=O)c5ccc(O)c(c5)-c5c(O)cc(O)cc5[C@@H](C(=O)O)NC6=O)nn4)cc3)cc2)nn1
- MIC [13]: 6.25 µg/mL (≈ 1.78 µM)
- MIC [14]: 6.25 µg/mL (≈ 1.78 µM)

SMILES: Cc1cc(O)c(C(=O)/C=C/c2ccc(OCc3cn(Cc4ccc(Br)cc4)nn3)cc2)c(=O)o1
- MIC [6]: 1.56 µg/mL (≈ 2.99 µM)
- MIC [7]: 1.56 µg/mL (≈ 2.99 µM)

SMILES: COC(=O)[C@H](C)NC(=O)c1cc(=O)n(Cc2cn(C3O[C@H]4OC(C)(C)O[C@H]4[C@@H]4OC(C)(C)OC[C@@H]34)nn2)c2ccccc12 (stereo not given in full)
- MIC [6]: 9.75 µg/mL (≈ 16.3 µM)

SMILES: COc1ccc(-n2cc(COc3ccccc3/C=N/NC(N)=O)nn2)cc1
- MIC [1]: 25 µg/mL (≈ 68.2 µM)
- MIC [2]: 25 µg/mL (≈ 68.2 µM)
- MIC [3]: 25 µg/mL (≈ 68.2 µM)
- MIC [4]: 25 µg/mL (≈ 68.2 µM)
- MIC [5]: 25 µg/mL (≈ 68.2 µM)

SMILES: O=C(Cn1cc(CN2CCN(c3cc4c(cc3F)c(=O)c(C(=O)O)cn4C3CC3)CC2)nn1)N[C@@H](Cc1cc(=O)[nH]c2ccccc12)C(=O)O
- MIC [8]: 0.25 µg/mL (≈ 0.365 µM)
- MIC [9]: 0.25 µg/mL (≈ 0.365 µM)
- MIC [10]: 0.25 µg/mL (≈ 0.365 µM)
- MIC [11]: 0.25 µg/mL (≈ 0.365 µM)
- MIC [12]: 0.25 µg/mL (≈ 0.365 µM)

SMILES: O=C(/C=C/c1ccc(OCc2cn(Cc3ccccc3Br)nn2)cc1)c1ccc(Br)cc1
- MIC [6]: 6.25 µg/mL (≈ 11.3 µM)
- MIC [7]: 6.25 µg/mL (≈ 11.3 µM)

SMILES: CC(C)C[C@@H](N)C(=O)N[C@H]1C(=O)N[C@@H](CC(N)=O)C(=O)N[C@H]2C(=O)N[C@H]3C(=O)N[C@H](C(=O)N[C@H](C(=O)O)c4cc(O)cc(O)c4-c4cc3ccc4O)[C@H](O)c3ccc(c(Cl)c3)Oc3cc2cc(c3O[C@@H]2O[C@H](CO)[C@@H](O)[C@H](O)[C@H]2O[C@H]2C[C@](C)(N)[C@H](O)[C@H](C)O2)Oc2ccc(cc2Cl)[C@H]1O
- MIC [13]: 1.56 µg/mL (≈ 1.09 µM)
- MIC [14]: 1.56 µg/mL (≈ 1.09 µM)

SMILES: NC(=O)N/N=C/c1ccccc1OCc1cn(-c2ccccc2)nn1
- MIC [1]: 25 µg/mL (≈ 74.3 µM)
- MIC [2]: 25 µg/mL (≈ 74.3 µM)
- MIC [3]: 25 µg/mL (≈ 74.3 µM)
- MIC [4]: 25 µg/mL (≈ 74.3 µM)
- MIC [5]: 25 µg/mL (≈ 74.3 µM)

SMILES: NC(=S)N/N=C/c1ccccc1OCc1cn(Cc2ccc(Br)cc2)nn1
- MIC [1]: 6.25 µg/mL (≈ 14 µM)
- MIC [2]: 6.25 µg/mL (≈ 14 µM)
- MIC [3]: 6.25 µg/mL (≈ 14 µM)
- MIC [4]: 6.25 µg/mL (≈ 14 µM)
- MIC [5]: 6.25 µg/mL (≈ 14 µM)

SMILES: C#CCOCCOCCOCc1cn([C@H](CC(C)C)C(=O)N[C@@H]2Cc3ccc(c(Cl)c3)Oc3cc4cc(c3O[C@@H]3O[C@H](CO)[C@@H](O)[C@H](O)[C@H]3O[C@H]3C[C@](C)(NCCCCCCCc5ccccc5)[C@H](O)[C@H](C)O3)Oc3ccc(cc3Cl)[C@@H](O)[C@@H]3NC(=O)[C@H](NC(=O)[C@@H]4NC(=O)[C@H](CC(=O)O)NC2=O)c2ccc(O)c(c2)-c2c(O)cc(O)cc2[C@H](C(=O)O)NC3=O)nn1
- MIC [13]: 25 µg/mL (≈ 13.9 µM)
- MIC [14]: 12.5 µg/mL (≈ 6.93 µM)

— ChEMBL document CHEMBL5344406, “1,2,3-Triazole-containing hybrids with potential antibacterial activity against ESKAPE pathogens” (2022)
